According to publication PMC9167584, “Calotropin and corotoxigenin 3-O-glucopyranoside from the desert milkweed Asclepias subulata inhibit the Na^+/K^+-ATPase activity” (PeerJ, 2022):
Several values for one entry are separate records, joined by “and”; a condition that tells them apart may be missing. Equal entries are not always repeated.

Experiments:
[1] = system: porcine brain Na^+/K^+-ATPase; assay: Kinetic analysis of Na+/K+-ATPase inhibition (Michaelis-Menten, Lineweaver-Burk); type: biochemical; settings: for Type of inhibition: Lineweaver-Burk plot, 0.1 and 1.0 μM inhibitor; for Ki: uncompetitive inhibition model, ATP as substrate
Description: The Michaelis-Menten kinetic parameters Km and Vmax of porcine brain Na^+/K^+-ATPase were determined from the initial velocities by modifying the ATP concentrations from 0.125 to 4.0 mM using the enzymatic standard conditions previously mentioned. Initial rates were recorded for 15 min in intervals of 3 min. The measurements were done in the absence or presence of inhibitors. The concentration of Na^+, K^+, and Mg^2+ ions remained constant. The initial velocity when the A. subulata cardenolides were tested was recorded for 15 min. Kinetic analyses were carried out in the presence or absence of two different concentrations of cardenolides (0.1 and 1.0 μM) to determine the nature of the inhibition of the Na^+/K^+-ATPase. All experiments were performed in triplicate. The experimental data were fitted to the Michaelis-Menten equation by non-linear regression analysis. The type of inhibition was obtained by Lineweaver-Burk double reciprocal plots using GraphPad Prism software version 8 (GraphPad Software Inc., San Diego, CA, USA).

[2] = biological target: brain porcine Na^+/K^+-ATPase; assay: In vitro inhibitory assay of Na+/K+-ATPase (colorimetric Pi release); type: biochemical; settings: brain porcine enzyme; mean ± SD; triplicate; read-out: Inhibition of Na^+/K^+-ATPase IC50
Description: We used the inhibitory assay method described by [Mugpasao et al. (2014)]. The enzymatic activity of Na^+/K^+-ATPase was determined by colorimetric quantification of orthophosphate (Pi) released during the ATP hydrolysis according to the method of [Taussky, Shorr & Kurzmann (1953)]. The inhibition assays were done using commercial brain porcine Na^+/K^+-ATPase. Protein concentration was determined according to the Bradford method ([Bradford, 1976]) using bovine serum albumin as standard. As inhibitors, we used cardenolides ouabain, calotropin, and C3OG. The cardenolide ouabain was used as a reference molecule. The reaction was done in a 96-wells plate, adding 10 μL of Na^+/K^+-ATPase solution (0.5 U/mL) with 4 μL of NaCl/KCl solution (35 mM of KCl and 1.65 M of NaCl), 70 μL of Tris-HCl buffer (30 mM Tris-HCl, 0.5 mM of EDTA and 7.8 mM of MgCl2) at 37 °C and 30 min with 6 μL either dimethyl sulfoxide (DMSO) or test compounds on each well. The range concentrations of inhibitors were 100.0–0.001 μM of ouabain and 1000.0–0.01 μM of calotropin and C3OG. Then, 20 μL of ATP solution 22 mM was added to each well, and the reaction solution was incubated at 37 °C for 15 min.
Next, we added 30 μL of trichloroacetic acid (TCA) at 30% (w/v) to each well to block the reaction. The 96-wells plate was mixed slightly and centrifuged at 3,000 rpm for 15 min. Finally, 50 μL of the supernatant was transferred to another 96-well plate and were coated with 100 μL of Taussky-Shorr solution. The absorbance was read at 660 nm in a microplate reader ThermoScientific Multiskan (Thermo Fisher, Vantaa, Finland) after incubation of 5 min at room temperature, protected from the light. The color intensity was proportional to the release of orthophosphate, indicating ATP hydrolysis and the Na^+/K^+-ATPase activity. The inhibition of the enzymatic activity by cardenolides was managed in the percentage of Na^+/K^+-ATPase activity compared with control. The data of inhibitory Na^+/K^+-ATPase activity were expressed in IC50 and standard deviation. All experiments were performed in triplicate. […]

[3] = biological target: porcine cerebral cortex Na^+/K^+-ATPase; set-up: method as in Agrawal et al. (2021); settings: porcine cerebral cortex enzyme; ref Agrawal et al. (2021); cited from earlier work
[4] = system: A549, PC-3, and LS-180; set-up: method as in Rascón-Valenzuela et al. (2015); settings: human cancer cell lines A549, PC-3, LS-180; ref Rascón-Valenzuela et al. (2015); cited from earlier work
[5] = biological target: Na^+/K^+-ATPase; set-up: method as in Ren et al., 2020; settings: reference inhibitor; ref Ren et al., 2020; cited from earlier work
[6] = in presence of 0.1 μM inhibitor
[7] = in presence of 1.0 μM inhibitor

| Compound | Type of inhibition [1] | Vmax [1, 6] | Vmax [1, 7] | Ki [1] | IC50 [2] | IC50 [3] | IC50 (cytotoxicity) [4] | IC50 [5] |
| --- | --- | --- | --- | --- | --- | --- | --- | --- |
| C[C@@H]1O[C@@H](O[C@H]2C[C@@H](O)[C@]3(CO)[C@H]4[C@H](O)C[C@]5(C)[C@@H](C6=CC(=O)OC6)CC[C@]5(O)[C@@H]4CC[C@]3(O)C2)[C@H](O)[C@H](O)[C@H]1O [Ouabain, ouabain octahydrate, reference compound] | uncompetitive | 2.11 ± 0.14 μmolPi/mg/min | 0.66 ± 0.04 μmolPi/mg/min | 160 nM | 120 ± 20 nM | – | – | – |
| C[C@@H]1C[C@H](O)[C@]2(O)O[C@@H]3C[C@@]4(C=O)[C@@H](CC[C@@H]5[C@@H]4CC[C@]4(C)[C@@H](C6=CC(=O)OC6)CC[C@]54O)C[C@H]3O[C@@H]2O1 [Calotropin, calotropin] | Uncompetitive | 2.17 ± 0.10 μmolPi/mg/min | 0.77 ± 0.10 μmolPi/mg/min | 200 ± 30 nM | 270 ± 60 nM | 270 nM | nanomolar order | – |
| C[C@H]1O[C@@H](O[C@H]2[C@@H](O)C[C@H](O[C@H]3[C@@H](O)C[C@H](O[C@H]4CC[C@@]5(C)[C@H](CC[C@@H]6[C@@H]5C[C@@H](O)[C@]5(C)[C@@H](C7=CC(=O)OC7)CC[C@]65O)C4)O[C@@H]3C)O[C@@H]2C)C[C@H](O)[C@@H]1O [digoxin] | – | – | – | – | – | – | – | 230 nM |
| C[C@]12CCC3C(CCC4C[C@@H](O[C@@H]5O[C@H](CO)[C@@H](O)[C@H](O)[C@H]5O)CC[C@@]43C=O)[C@@]1(O)CC[C@@H]2C1=CC(=O)OC1 (stereo partly shown) [C3OG, corotoxigenin 3-O-glucopyranoside] | Uncompetitive | 1.47 ± 0.08 μmolPi/mg/min | 0.80 ± 0.06 μmolPi/mg/min | 500 nM and 520 nM | 870 ± 200 nM | – | micromolar order | – |
